# According to US20010011063A1, “Substituted 2,4-diamino-1,3,5-triazines, processes for their preparation and their use as herbicides and plant growth regulators” (priority 1999, published 2001):
# Tests used:
# Format in all cases: in vivo
# [1] = system: Stellaria media, Lolium multiflorum, Amaranthus retroflexus, Sinapis alba, Avena sativa and Settaria viridis; assay: Pre-emergence effect on weeds (greenhouse pot test); conditions: application rate of 1 kg or less of active substance per hectare; visually scored after 3 to 4 weeks by comparison with untreated controls
# Description: Seeds or rhizome pieces of mono and dicotyledonous weed plants are placed in sandy loam soil in plastic pots and covered with soil. The compounds according to the invention which are formulated in the form of wettable powders or emulsion concentrates are then applied to the soil cover in the form of aqueous suspensions or emulsions at an application rate of 600 to 800 l of water/ha (converted), in various dosages.
# [2] = system: Sinapis alba, Echinochloa crus-galli, Lolium multiforum, Stellaria media, Cyperus iria, Amaranthus retroflexus, Settaria viridis and Avena sativa; assay: Post-emergence effect on weeds (greenhouse pot test); conditions: application rate of 1 kg or less of active substance per hectare; treated at the three-leaf stage; scored visually after about 3 to 4 weeks vs untreated controls
# Procedure: Seeds or rhizome pieces of mono- and dicotyledonous weeds are placed in sandy loam soil in plastic pots, covered with soil and grown in a greenhouse under good growth conditions. Three weeks after sowing, the test plants are treated at the three-leaf stage. The compounds according to the invention, formulated as wettable powders or emulsion concentrates, are sprayed, at various dosages, onto the green parts of the plants at an application rate of 600 to 800 l of water/ha (converted). After the test plants had remained in the greenhouse for about 3 to 4 weeks under optimum growth conditions, the effect of the preparations is scored visually by comparison with untreated controls. The agents according to the invention also have good herbicidal activity post-emergence against a broad spectrum of economically important weed grasses and broad-leaved weeds.
# [3] = system: Cyperus monti, Echinochloa crus-galli and Sagitaria pygmaea; assay: Action on harmful plants in rice (paddy rice conditions); conditions: poured into the dammed water, visual scoring about three weeks after application; further: test concentration or dose not given here
# Description: Transplanted and sown rice and also typical rice weeds (gramineous and broad-leaved) are cultivated in closed plastic pots in a greenhouse to the three-leaf stage (Echinochloa crus-galli 1.5-leaf) under paddy rice conditions (height of water: 2-3 cm). This is followed by treatment with the compounds according to the invention. For this purpose, the formulated active compounds are suspended, dissolved or emulsified in water and applied by pouring them into the dammed water around the test plants in different dosages.
Structure (SMILES),herbicidal activity pre-emergence against harmful plants [1],herbicidal activity post-emergence against harmful plants [2],herbicidal activity against harmful plants which are typical for rice crops [3]
CC(C)(F)c1nc(N)nc(N[C@H](CCc2ccccc2)CC2CC2)n1 [Example 2-145],very good herbicidal activity,very good herbicidal activity,very good herbicidal activity
CC(C)c1nc(N)nc(N[C@@H](CCc2ccccc2)CC2CC2)n1 [Example 1-144],very good herbicidal activity,very good herbicidal activity,very good herbicidal activity
CC(C)c1nc(N)nc(NC(CCCc2ccccc2)C2CC2)n1 (stereo not drawn) [Example 4-11],very good herbicidal activity,very good herbicidal activity,very good herbicidal activity
Cc1cccc(CC[C@H](Nc2nc(N)nc(C(C)(C)F)n2)C2CCC2)c1 [Example 1-28],very good herbicidal activity,very good herbicidal activity,very good herbicidal activity
Cc1nc(N)nc(N[C@H](CCc2ccccc2)C2CCC2)n1 [Example 2-16],very good herbicidal activity,,very good herbicidal activity
CC(F)c1nc(N)nc(NC(CCCc2ccccc2)C2CC2)n1 (mixture of isomers) [Example 3-3],very good herbicidal activity,very good herbicidal activity,very good herbicidal activity
CC(C)(F)c1nc(N)nc(N[C@@H](CCc2ccccc2)C2CCC2)n1 [Example 1-15],very good herbicidal activity,very good herbicidal activity,very good herbicidal activity
Cc1cccc(CCCC(Nc2nc(N)nc(C(C)(C)F)n2)C2CCC2)c1 (stereo not drawn) [Example 4-72],very good herbicidal activity,very good herbicidal activity,very good herbicidal activity
CC(C)(F)c1nc(N)nc(N[C@@H](CCc2ccccc2)CC2CC2)n1 [Example 1-145],very good herbicidal activity,very good herbicidal activity,very good herbicidal activity
Cc1cccc(CCCC(Nc2nc(N)nc(C(C)C)n2)C2CCC2)c1 (stereo not drawn) [Example 4-71],very good herbicidal activity,very good herbicidal activity,very good herbicidal activity
CC(C)Cc1nc(N)nc(N[C@H](Cc2ccccc2)CC2CC2)n1 [Example 6-1],very good herbicidal activity,very good herbicidal activity,very good herbicidal activity
CC(C)c1nc(N)nc(NC(CCc2ccccc2)CC2CC2(F)F)n1 (mixture of isomers) [Example 2-158],very good herbicidal activity,very good herbicidal activity,very good herbicidal activity
CC(C)c1nc(N)nc(N[C@H](CCc2cccc(Cl)c2)C2CCC2)n1 [Example 2-23],very good herbicidal activity,very good herbicidal activity,very good herbicidal activity
CC(C)c1nc(N)nc(NC(Cc2ccccc2)CC2CC2)n1 (stereo not drawn) [Example 5-3],very good herbicidal activity,very good herbicidal activity,very good herbicidal activity
"CC(C)(F)c1nc(N)nc(N[C@H](CCc2ccccc2)C2CCC2)n1 [Example 2-15, 2-Amino-4-(1-fluoro-1-methylethyl)-6-[(1 R)-3-phenyl-1-cyclobutyl-1-propylamino]-1,3,5-triazine]",very good herbicidal activity,very good herbicidal activity,very good herbicidal activity
CC(C)Cc1nc(N)nc(NC(Cc2ccccc2)CC2CC2)n1 (stereo not drawn) [Example 5-1],very good herbicidal activity,very good herbicidal activity,very good herbicidal activity
CC(C)Cc1nc(N)nc(NC(CCCc2ccccc2)C2CCC2)n1 (stereo not drawn) [Example 3-59],very good herbicidal activity,very good herbicidal activity,very good herbicidal activity
CC(C)c1nc(N)nc(N[C@@H](CCc2cccc(Cl)c2)C2CCC2)n1 [Example 1-23],very good herbicidal activity,very good herbicidal activity,very good herbicidal activity
CC(C)c1nc(N)nc(N[C@H](CCc2ccccc2)CC2CC2)n1 [Example 2-144],very good herbicidal activity,very good herbicidal activity,very good herbicidal activity
CCc1nc(N)nc(N[C@@H](CCCc2ccccc2)C2CC2)n1 [Example 3-9],very good herbicidal activity,very good herbicidal activity,very good herbicidal activity
CC(C)(F)c1nc(N)nc(NC(CCCCc2ccccc2)C2CC2)n1 (stereo not drawn) [Example 5-44],very good herbicidal activity,very good herbicidal activity,very good herbicidal activity
CC(C)(F)c1nc(N)nc(NC(CCCc2cccc(Cl)c2)C2CCC2)n1 (stereo not drawn) [Example 3-68],very good herbicidal activity,very good herbicidal activity,very good herbicidal activity
CC(C)c1nc(N)nc(NC(CCCCc2ccccc2)C2CC2)n1 (stereo not drawn) [Example 5-43],very good herbicidal activity,very good herbicidal activity,very good herbicidal activity
CC(C)(F)c1nc(N)nc(NC(CCc2cccc(F)c2)C2CC2(Cl)Cl)n1 (mixture of isomers) [Example 2-6],,very good herbicidal activity,
